Measurements: patent US10611740B2, “Aryl dihydro-2H-benzo[b][1,4]oxazine sulfonamide and related compounds for use as agonists of RORγ and the treatment of disease” (Lycera Corporation, priority 2015, dated 2020)

Target: T1, Gal4-RORγ-LBD (Homo sapiens, UniProt P51449)
T1 construct: expressed in transfected cells; host or cells: HEK-293 cells (pcDNA3.1neo plasmid)
T1 sequence (P51449 269-508 limits assumed): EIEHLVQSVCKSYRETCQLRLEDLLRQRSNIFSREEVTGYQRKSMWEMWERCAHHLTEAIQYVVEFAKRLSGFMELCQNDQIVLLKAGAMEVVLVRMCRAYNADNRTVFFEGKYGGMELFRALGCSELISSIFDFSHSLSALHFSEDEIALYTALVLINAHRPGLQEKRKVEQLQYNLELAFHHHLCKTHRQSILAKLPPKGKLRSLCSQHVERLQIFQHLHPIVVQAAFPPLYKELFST
Experiment: Gal4-RORγ Luciferase Reporter Assay in HEK-293T Cells
Type: cell-based
Conditions: HEK-293 cells, 2 μM ursolic acid
Procedure: Assay procedures and results are described below.
In the following protocol, HEK-293 cells were transfected with a construct comprising the Gal4 DNA binding domain fused to the ligand binding domain of RORγ (Gal4-RORγ-LBD) in a pcDNA3.1neo plasmid, and also with a reporter construct comprising pGL4.31 Gal4-luciferase (Promega). Control cells were prepared similarly using empty pcDNA3.1neo and pGL4.31 vectors.
Trans-IT reagent (Mirus, 60 μL) at room temperature was added drop wise to OptiMEM (Invitrogen, 1.5 ml). This reagent mixture was mixed by inversion then incubated for 5 to 30 minutes at room temperature. It then was added to a solution of both expression vectors (5 μg each), mixed, and incubated at room temperature for about 20 minutes. HEK-293 cells were harvested from incubation flasks by removing the media, treating with TrypLE Express (Invitrogen), and incubating until the cells detached from the bottom of the flask (approximately 2-5 minutes). 10 Million cells were collected by centrifugation and re-suspended in 10 mL of Dulbecco's Modified Eagle Medium, High Glucose (DMEM, Invitrogen) containing 10% Fetal Bovine Serum and 100 IU each of penicillin and streptomycin. The re-suspended cells and the transfection mixture were added to a T75 flask, mixed and incubated overnight at 37° C. and 5% CO2.
The cells were harvested as described above, counted, and centrifuged to obtain the desired number of cells, then re-suspended in complete growth media at 0.75×10^6 cells/mL. The RORγ antagonist, ursolic acid, was added to the cells at a final concentration of 2 μM. Cells were plated at 20 μL of cell suspension/well (10,000-15,000 cells/well) in white tissue culture treated 384 well plates. Test compounds were dissolved at 10 mM in DMSO then diluted into complete growth medium to 5× the final intended test concentration. These drug stock solutions, 5 μL/well were added to the tissue culture plate. The final DMSO concentration was 0.2%. The plates were briefly centrifuged then incubated overnight at 37° C. and 5% CO2. To conduct the assay, the tissue culture plates were allowed to equilibrate to room temperature and One-Glo luciferase reagent (Promega, 25 μL/well) was added. The plates were briefly centrifuged then incubated at room temperature for 10 minutes. The luciferase intensity was read on an Envision plate reader (Perkin Elmer). […] The luciferase signal in the absence of ursolic acid or test compound is defined at 100. The Max Response is the upper plateau in the signal as determined by line-fit using a 4-parameter logistic model in PRISM (GraphPad).

O=C(O)C1(C[C@H]2CN(S(=O)(=O)c3cc(F)cc(C(F)(F)F)c3)c3cc(-c4cc(F)ccc4F)ccc3O2)COC1 [Compound 51G, (S)-3-((6-(2,5-difluorophenyl)-4-((3-fluoro-5-(trifluoromethyl)-phenyl)sulfonyl)-3,4-dihydro-2H-benzo[b][1,4]oxazin-2-yl)methyl)oxetane-3-carboxylic acid]
EC50: < 500 nM
Gal4-RORγ Assay Max Response: ** (The symbol “**” indicates a value in the range of greater than 90 to 150)

O=C(O)C1(C[C@H]2CN(S(=O)(=O)c3cccc(C(F)F)c3)c3cc(-c4cc(F)ccc4F)ccc3O2)COC1 [Compound 51H, (S)-3-((4-((3-(difluoromethyl)-phenyl)sulfonyl)-6-(2,5-difluorophenyl)-3,4-dihydro-2H-benzo[b][1,4]oxazin-2-yl)methyl)oxetane-3-carboxylic acid]
EC50: 500 to 5000 nM
Gal4-RORγ Assay Max Response: ** (The symbol “**” indicates a value in the range of greater than 90 to 150)

O=C(O)C1(C[C@H]2CN(S(=O)(=O)c3cc(F)cc(C(F)(F)F)c3)c3cc(-c4cc(F)cc(OC(F)F)c4)ccc3O2)COC1 [Compound 51I, (S)-3-((6-(3-(difluoromethoxy)-5-fluorophenyl)-4-((3-fluoro-5-(trifluoromethyl)phenyl)sulfonyl)-3,4-dihydro-2H-benzo[b][1,4]-oxazin-2-yl)methyl)oxetane-3-carboxylic acid]
EC50: < 500 nM
Gal4-RORγ Assay Max Response: * (The symbol “*” indicates a value in the range of 25 to 90)

O=C(O)C1(C[C@H]2CN(S(=O)(=O)c3cccc(C(F)F)c3)c3cc(-c4cc(F)cc(OC(F)F)c4)ccc3O2)COC1 [Compound 51J, (S)-3-((6-(3-(difluoromethoxy)-5-fluorophenyl)-4-((3-(difluoro-methyl)phenyl)sulfonyl)-3,4-dihydro-2H-benzo[b][1,4]oxazin-2-yl)methyl)oxetane-3-carboxylic acid]
EC50: < 500 nM
Gal4-RORγ Assay Max Response: ** (The symbol “**” indicates a value in the range of greater than 90 to 150)

O=C(O)C1(C[C@H]2CN(S(=O)(=O)c3cncc(C(F)(F)F)c3)c3cc(-c4cc(F)ccc4F)ccc3O2)COC1 [Compound 51K, (S)-3-((6-(2,5-difluorophenyl)-4-((5-(trifluoromethyl)pyridin-3-yl)sulfonyl)-3,4-dihydro-2H-benzo[b][1,4]oxazin-2-yl)methyl)oxetane-3-carboxylic acid]
EC50: 500 to 5000 nM
Gal4-RORγ Assay Max Response: *** (The symbol “***” indicates a value in the range of greater than 150 to 200)

O=C(O)C1(C[C@H]2CN(S(=O)(=O)c3cncc(C(F)(F)F)c3)c3cc(-c4cc(F)cc(OC(F)F)c4)ccc3O2)COC1 [Compound 51L, (S)-3-((6-(3-(difluoromethoxy)-5-fluorophenyl)-4-((5-(trifluoro-methyl)pyridin-3-yl)sulfonyl)-3,4-dihydro-2H-benzo[b][1,4]oxazin-2-yl)methyl)oxetane-3-carboxylic acid]
EC50: < 500 nM
Gal4-RORγ Assay Max Response: ** (The symbol “**” indicates a value in the range of greater than 90 to 150)

C[C@]1(C(=O)O)C[C@H](C[C@H]2CN(S(=O)(=O)c3cccc(C(F)(F)F)c3)c3cc(-c4cc(F)cc(F)c4Cl)ccc3O2)C1 [Compound 60F, (1S,3r)-3-(((S)-6-(2-chloro-3,5-difluorophenyl)-4-((3-(trifluoro-methyl)phenyl)sulfonyl)-3,4-dihydro-2H-benzo[b][1,4]oxazin-2-yl)methyl)-1-methylcyclo-butane-1-carboxylic acid]
EC50: < 500 nM
Gal4-RORγ Assay Max Response: ** (The symbol “**” indicates a value in the range of greater than 90 to 150)

CC1(C(=O)O)CC(C[C@H]2CN(S(=O)(=O)c3cccc(C(F)(F)F)c3)c3cc(-c4cc(F)cc(F)c4Cl)ccc3O2)C1 (stereo partly drawn) [Compound 60G, (1R,3s)-3-(((S)-6-(2-chloro-3,5-difluorophenyl)-4-((3-(trifluoro-methyl)phenyl)sulfonyl)-3,4-dihydro-2H-benzo[b][1,4]oxazin-2-yl)methyl)-1-methylcyclo-butane-1-carboxylic acid]
EC50: < 500 nM
Gal4-RORγ Assay Max Response: *** (The symbol “***” indicates a value in the range of greater than 150 to 200)

CC(=O)N[C@H]1C[C@@H]([C@H]2CN(S(=O)(=O)c3cccc(C(F)(F)F)c3)c3cc(-c4cc(F)ccc4F)ccc3O2)C1 [Compound 60L, N-((1R,3s)-3-((S)-6-(2,5-difluorophenyl)-4-((3-(trifluoro-methyl)phenyl)sulfonyl)-3,4-dihydro-2H-benzo[b][1,4]-oxazin-2-yl)cyclobutyl)-acetamide]
EC50: < 500 nM
Gal4-RORγ Assay Max Response: ** (The symbol “**” indicates a value in the range of greater than 90 to 150)

CC(=O)N[C@H]1C[C@H]([C@H]2CN(S(=O)(=O)c3cccc(C(F)(F)F)c3)c3cc(-c4cc(F)ccc4F)ccc3O2)C1 [Compound 60M, N-((1S,3r)-3-((S)-6-(2,5-difluorophenyl)-4-((3-(trifluoro-methyl)phenyl)sulfonyl)-3,4-dihydro-2H-benzo[b][1,4]-oxazin-2-yl)cyclobutyl)-acetamide]
EC50: < 500 nM
Gal4-RORγ Assay Max Response: ** (The symbol “**” indicates a value in the range of greater than 90 to 150)

O=C(O)[C@]1(C[C@H]2CN(S(=O)(=O)c3cccc(C(F)(F)F)c3)c3cc(-c4cc(F)cc(OC(F)F)c4)ccc3O2)C[C@@H](O)[C@@H](O)C1 [Compound 64, (1s,3R,4S)-1-(((S)-6-(3-(difluoromethoxy)-5-fluorophenyl)-4-((3-(trifluoromethyl)phenyl)sulfonyl)-3,4-dihydro-2H-benzo[b][1,4]oxazin-2-yl)methyl)-3,4-dihydroxycyclopentane-1-carboxylic acid]
EC50: 500 to 5000 nM
Gal4-RORγ Assay Max Response: ** (The symbol “**” indicates a value in the range of greater than 90 to 150)

O=C(O)[C@@]1(C[C@H]2CN(S(=O)(=O)c3cccc(C(F)(F)F)c3)c3cc(-c4cc(F)cc(OC(F)F)c4)ccc3O2)C[C@@H](O)[C@@H](O)C1 [Compound 65, (1r,3R,4S)-1-(((S)-6-(3-(difluoromethoxy)-5-fluorophenyl)-4-((3-(trifluoromethyl)phenyl)sulfonyl)-3,4-dihydro-2H-benzo[b][1,4]oxazin-2-yl)methyl)-3,4-dihydroxycyclopentane-1-carboxylic acid]
EC50: 500 to 5000 nM
Gal4-RORγ Assay Max Response: ** (The symbol “**” indicates a value in the range of greater than 90 to 150)

O=C(O)[C@]1(C[C@H]2CN(S(=O)(=O)c3cccc(C(F)(F)F)c3)c3cc(-c4cc(F)cc(OC(F)F)c4)ccc3O2)C[C@H](O)C1 [Compound 67, (1s,3S)-1-(((S)-6-(3-(difluoromethoxy)-5-fluorophenyl)-4-((3-(trifluoromethyl)phenyl)sulfonyl)-3,4-dihydro-2H-benzo[b][1,4]oxazin-2-yl)methyl)-3-hydroxycyclobutane-1-carboxylic acid]
EC50: < 500 nM
Gal4-RORγ Assay Max Response: ** (The symbol “**” indicates a value in the range of greater than 90 to 150)

O=C(O)[C@]1(C[C@H]2CN(S(=O)(=O)c3cccc(C(F)(F)F)c3)c3cc(-c4cc(F)cc(OC(F)F)c4)ccc3O2)C[C@@H](O)C1 [Compound 68, (1r,3R)-1-(((S)-6-(3-(difluoromethoxy)-5-fluorophenyl)-4-((3-(trifluoromethyl)phenyl)sulfonyl)-3,4-dihydro-2H-benzo[b][1,4]oxazin-2-yl)methyl)-3-hydroxycyclobutane-1-carboxylic acid]
EC50: < 500 nM
Gal4-RORγ Assay Max Response: ** (The symbol “**” indicates a value in the range of greater than 90 to 150)
